# In patent EP2970215B1, “PYRROLIDINE DERIVATIVES, PHARMACEUTICAL COMPOSITIONS CONTAINING THEM, AND THEIR USE IN THERAPY” (AbbVie Deutschland GmbH & Co. KG, priority 2013, dated 2014):
# Biological target: T1, human GlyT1c transporter (Homo sapiens, UniProt P48067)
# T1 construct: expressed in transfected cells; host or cells: CHO cells (recombinant; line hGlyT1c_5_CHO is named for the uptake assay)
# T1 sequence (P48067 1-706): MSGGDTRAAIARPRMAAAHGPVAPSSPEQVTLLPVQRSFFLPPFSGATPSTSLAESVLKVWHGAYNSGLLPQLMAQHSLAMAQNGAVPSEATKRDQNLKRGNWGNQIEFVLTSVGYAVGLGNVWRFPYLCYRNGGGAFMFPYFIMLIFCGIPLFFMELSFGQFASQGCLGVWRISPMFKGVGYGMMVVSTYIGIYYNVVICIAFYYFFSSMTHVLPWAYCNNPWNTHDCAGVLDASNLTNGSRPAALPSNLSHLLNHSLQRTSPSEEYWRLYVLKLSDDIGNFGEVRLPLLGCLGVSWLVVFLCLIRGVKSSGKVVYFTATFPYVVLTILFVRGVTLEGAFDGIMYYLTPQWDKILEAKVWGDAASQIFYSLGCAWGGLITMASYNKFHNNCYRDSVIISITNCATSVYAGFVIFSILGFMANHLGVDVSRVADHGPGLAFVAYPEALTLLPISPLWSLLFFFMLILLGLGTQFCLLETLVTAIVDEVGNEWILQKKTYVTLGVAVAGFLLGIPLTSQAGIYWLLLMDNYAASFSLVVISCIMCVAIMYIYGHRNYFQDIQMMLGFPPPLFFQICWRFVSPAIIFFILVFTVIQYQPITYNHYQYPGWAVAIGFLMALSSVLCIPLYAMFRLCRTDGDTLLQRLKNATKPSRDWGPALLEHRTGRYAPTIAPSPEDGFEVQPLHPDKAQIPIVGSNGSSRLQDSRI
# Assay: Radioligand binding assay using recombinant CHO cell membranes expressing human GlyT1
# Details: radioligand binding to human GlyT1c transporter-expressing membranes
# Excerpt: 2. Radioligand binding assays using recombinant CHO cell membranes expressing human GlyT1: […]
row,Ki,Compound
1,≤ 0.1 µM,"CCCCCCN[C@@H]1CN(S(=O)(=O)c2cn(C)cn2)C[C@H]1c1ncccc1F (relative stereo) [Example 762, Trans-4-(3-fluoropyridin-2-yl)-N-hexyl-1-[(1-methyl-1H-imidazol-4-yl)sulfonyl]pyrrolidin-3-amine]"
2,≤ 1 µM,"CCCCCN(CCCCC)[C@@H]1CN(S(=O)(=O)c2cn(C)cn2)C[C@H]1c1ncccc1F (relative stereo) [Example 764, Trans-4-(3-fluoropyridin-2-yl)-1-[(1-methyl-1H-imidazol-4-yl)sulfonyl]-N,N-dipentylpyrrolidin-3-amine]"
3,≤ 0.1 µM,"Cn1cnc(S(=O)(=O)N2C[C@@H](Nc3ccc(F)c(C(F)(F)F)c3)[C@H](c3ncccc3F)C2)c1 (relative stereo) [Example 767, Trans-4-(3-fluoropyridin-2-yl)-N-[4-fluoro-3-(trifluoromethyl)phenyl]-1-[(1-methyl-1H-imidazol-4-yl)sulfonyl]pyrrolidin-3-amine]"
4,≤ 0.1 µM,"Cn1cnc(S(=O)(=O)N2C[C@@H](Nc3ccc(F)c(OC(F)(F)F)c3)[C@H](c3ncccc3F)C2)c1 (relative stereo) [Example 768, Trans-4-(3-fluoropyridin-2-yl)-N-[4-fluoro-3-(trifluoromethoxy)phenyl]-1-[(1-methyl-1H-imidazol-4-yl)sulfonyl]pyrrolidin-3-amine]"
5,≤ 1 µM,"Cc1cc(N[C@@H]2CN(S(=O)(=O)c3cn(C)cn3)C[C@H]2c2ncccc2F)ncc1F (relative stereo) [Example 769, 5-fluoro-N-{trans-4-(3-fluoropyridin-2-yl)-1-[(1-methyl-1H-imidazol-4-yl)sulfonyl]pyrrolidin-3-yl}-4-methylpyridin-2-amine]"
6,≤ 0.1 µM,"Cn1cnc(S(=O)(=O)N2C[C@@H](Nc3ccc(F)c(Cl)c3)[C@H](c3ncccc3F)C2)c1 (relative stereo) [Example 771, Trans-N-(3-chloro-4-fluorophenyl)-4-(3-fluoropyridin-2-yl)-1-[(1-methyl-1H-imidazol-4-yl)sulfonyl]pyrrolidin-3-amine]"
7,≤ 10 µM,"Cn1cnc(S(=O)(=O)N2C[C@@H](Nc3cc(Cl)ncn3)[C@H](c3ncccc3F)C2)c1 (relative stereo) [Example 772, 6-chloro-N-{trans-4-(3-fluoropyridin-2-yl)-1-[(1-methyl-1H-imidazol-4-yl)sulfonyl]pyrrolidin-3-yl}pyrimidin-4-amine]"
8,≤ 1 µM,"Cc1cc(N[C@@H]2CN(S(=O)(=O)c3cn(C)cn3)C[C@H]2c2ncccc2F)ccc1F (relative stereo) [Example 775, Trans-N-(4-fluoro-3-methylphenyl)-4-(3-fluoropyridin-2-yl)-1-[(1-methyl-1H-imidazol-4-yl)sulfonyl]pyrrolidin-3-amine]"
9,≤ 10 µM,"Cc1cccc(N[C@@H]2CN(S(=O)(=O)c3cn(C)cn3)C[C@H]2C2CCCOC2)c1 (relative stereo) [Example 781, trans-1-[(1-methyl-1H-imidazol-4-yl)sulfonyl]-N-(3-methylphenyl)-4-(tetrahydro-2H-pyran-3-yl)pyrrolidin-3-amine]"
10,≤ 1 µM,"Cn1cnc(S(=O)(=O)N2C[C@@H](Nc3cccc(C(F)(F)F)c3)[C@H](C3CCCOC3)C2)c1 (relative stereo) [Example 782, trans-1-[(1-methyl-1H-imidazol-4-yl)sulfonyl]-4-(tetrahydro-2H-pyran-3-yl)-N-[3-(trifluoromethyl)phenyl]pyrrolidin-3-amine]"
11,≤ 1 µM,"Cn1cnc(S(=O)(=O)N2C[C@@H](Nc3cccc(Cl)c3)[C@H](C3CCCOC3)C2)c1 (relative stereo) [Example 783, trans -N-(3-chlorophenyl)-1-[(1-methyl-1H-imidazol-4-yl)sulfonyl] -4-(tetrahydro-2H-pyran-3 - yl)pyrrolidin-3-amine]"
12,≤ 10 µM,"Cn1cnc(S(=O)(=O)N2C[C@@H]([C@@H]3CCCOC3)[C@H](Nc3ccc(Cl)c(C(F)(F)F)c3)C2)c1 (relative stereo) [Example 792, Trans-N-[4-chloro-3-(trifluoromethyl)phenyl]-1-[(1-methyl-1H-imidazol-4-yl)sulfonyl]-4-[(3S)-tetrahydro-2H-pyran-3-yl]pyrrolidin-3-amine]"
13,≤ 10 µM,"Cn1cnc(S(=O)(=O)N2C[C@@H]([C@@H]3CCCOC3)[C@H](Nc3ccc(Cl)c(OC(F)(F)F)c3)C2)c1 (relative stereo) [Example 793, Trans-N-[4-chloro-3-(trifluoromethoxy)phenyl]-1-[(1-methyl-1H-imidazol-4-yl)sulfonyl]-4-[(3S)-tetrahydro-2H-pyran-3-yl]pyrrolidin-3-amine]"
14,≤ 0.1 µM,"Cn1cnc(S(=O)(=O)N2C[C@@H](Nc3cccc(C(F)(F)F)c3)[C@H](c3ncccc3F)C2)c1 (relative stereo) [Example 798, Trans-4-(3-fluoropyridin-2-yl)-1-[(1-methyl-1H-imidazol-4-yl)sulfonyl]-N-[3-(trifluoromethyl)phenyl]pyrrolidin-3-amine]"

# The next lines start with the compound.
row,Compound,Ki
1,"Cn1cnc(S(=O)(=O)N2C[C@@H](Nc3cccc(C(F)(F)F)c3)[C@H](C3CCCCO3)C2)c1 (relative stereo) [Example 681, Trans-1-[(1-methyl-1H-imidazol-4-yl)sulfonyl]-4-(tetrahydro-2H-pyran-2-yl)-N-[3-(trifluoromethyl)phenyl]pyrrolidin-3-amine]",≤ 0.01 µM
2,"Cn1cnc(S(=O)(=O)N2C[C@@H](Nc3cc(C(F)(F)F)ccn3)[C@H](C3CCCCO3)C2)c1 (relative stereo) [Example 682, N-{Trans-1-[(1-methyl-1H-imidazol-4-yl)sulfonyl]-4-[tetrahydro-2H-pyran-2-yl]pyrrolidin-3-yl}-4-(trifluoromethyl)pyridin-2-amine]",≤ 0.1 µM
3,"Cn1cnc(S(=O)(=O)N2C[C@@H](Nc3cc(C(F)(F)F)ncn3)[C@H](C3CCCCO3)C2)c1 (relative stereo) [Example 687, N-[Trans-1-[(1-methyl-1H-imidazol-4-yl)sulfonyl]-4-(tetrahydro-2H-pyran-2-yl)pyrrolidin-3-yl]-6-(trifluoromethyl)pyrimidin-4-amine]",≤ 0.1 µM
4,"CCCNCCO[C@@H]1CN(S(=O)(=O)c2cn(C)cn2)C[C@H]1c1ccc(F)cc1 (relative stereo) [Example 688, N-[2-({Trans-4-(4-fluorophenyl)-1-[(1-methyl-1H-imidazol-4-yl)sulfonyl]pyrrolidin-3-yl}oxy)ethyl]propan-1-amine]",≤ 1 µM
5,"CCCNC(=O)CO[C@@H]1CN(S(=O)(=O)c2cn(C)cn2)C[C@H]1c1ccc(F)cc1 (relative stereo) [Example 689, 2-({Trans-4-(4-fluorophenyl)-1-[(1-methyl-1H-imidazol-4-yl)sulfonyl]pyrrolidin-3-yl}oxy)-N-propylacetamide]",≤ 1 µM
6,"Cn1cnc(S(=O)(=O)N2C[C@@H](Nc3ccc(F)c(F)c3)[C@H](c3ncco3)C2)c1 (relative stereo) [Example 709, Trans-N-[3,4-difluorophenyl]-1-[(1-methyl-1H-imidazol-4-yl)sulfonyl]-4-(1,3-oxazol-2-yl)pyrrolidin-3-amine]",≤ 10 µM
7,"Cn1cnc(S(=O)(=O)N2C[C@@H](OCc3cccc(F)c3)[C@H](c3ccc(F)cc3)C2)c1 (relative stereo) [Example 712, 4-{[trans-3-[(3-fluorobenzyl)oxy]-4-(4-fluorophenyl)pyrrolidin-1-yl]sulfonyl}-1-methyl-1H-imidazole]",≤ 1 µM
8,"Cn1cnc(S(=O)(=O)N2C[C@@H](OCc3ccc(S(C)(=O)=O)cc3)[C@H](c3ccc(F)cc3)C2)c1 (relative stereo) [Example 713, 4-{[trans-3-(4-fluorophenyl)-4-{[4-(methylsulfonyl)benzyl]oxy}pyrrolidin-1-yl]sulfonyl}-1-methyl-1H-imidazole]",> 10 µM
9,"Cn1cnc(S(=O)(=O)N2C[C@@H](OCc3cccc(S(C)(=O)=O)c3)[C@H](c3ccc(F)cc3)C2)c1 (relative stereo) [Example 714, 4-{[trans-3-(4-fluorophenyl)-4-{[3-(methylsulfonyl)benzyl]oxy}pyrrolidin-1-yl]sulfonyl}-1-methyl-1H-imidazole]",≤ 10 µM
10,"CCCCCCN(CCCCCC)[C@@H]1CN(S(=O)(=O)c2cn(C)cn2)C[C@H]1c1ncccc1F (relative stereo) [Example 763, Trans-4-(3-fluoropyridin-2-yl)-N,N-dihexyl-1-[(1-methyl-1H-imidazol-4-yl)sulfonyl]pyrrolidin-3-amine]",≤ 1 µM
11,"CCCCCN[C@@H]1CN(S(=O)(=O)c2cn(C)cn2)C[C@H]1c1ncccc1F (relative stereo) [Example 765, Trans-4-(3-fluoropyridin-2-yl)-1-[(1-methyl-1H-imidazol-4-yl)sulfonyl]-N-pentylpyrrolidin-3-amine]",≤ 1 µM
12,"Cn1cnc(S(=O)(=O)N2C[C@@H](Nc3cc(C(F)(F)F)ncn3)[C@H](c3ncccc3F)C2)c1 (relative stereo) [Example 770, N-{Trans-4-(3-fluoropyridin-2-yl)-1-[(1-methyl-1H-imidazol-4-yl)sulfonyl]pyrrolidin-3-yl}-6-(trifluoromethyl)pyrimidin-4-amine]",≤ 1 µM
